# Laboratory results published in ChEMBL document CHEMBL1201862, “PubChem BioAssay data set” (2004).
# Activity calls are given as the source filed them.
# Columns and labels:
# [1] = target: Cytochrome P450 2C19 (Homo sapiens, UniProt P33261); assay: Cytochrome panel assay with activity outcomes. Panel member name: p450-cyp2c19 Compounds with AC50 equal or less than 10 uM are considered active; type: functional
# [2] = target: T1, Heat shock factor protein 1 (Mus musculus, UniProt P38532); assay: decrease of HSF1-responsive luciferase luminescence – cell-based, NIH3T3, dose retest, confirmation (AID 2382); type: functional;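 also: NIH3T3 fibroblasts with HSF1-driven luciferase reporter stressed by proteasome inhibitor MG132; luminescence from HSF1-driven luciferase expression after 8 hours of MG132 stress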
# T1 sequence (P38532 whole entry): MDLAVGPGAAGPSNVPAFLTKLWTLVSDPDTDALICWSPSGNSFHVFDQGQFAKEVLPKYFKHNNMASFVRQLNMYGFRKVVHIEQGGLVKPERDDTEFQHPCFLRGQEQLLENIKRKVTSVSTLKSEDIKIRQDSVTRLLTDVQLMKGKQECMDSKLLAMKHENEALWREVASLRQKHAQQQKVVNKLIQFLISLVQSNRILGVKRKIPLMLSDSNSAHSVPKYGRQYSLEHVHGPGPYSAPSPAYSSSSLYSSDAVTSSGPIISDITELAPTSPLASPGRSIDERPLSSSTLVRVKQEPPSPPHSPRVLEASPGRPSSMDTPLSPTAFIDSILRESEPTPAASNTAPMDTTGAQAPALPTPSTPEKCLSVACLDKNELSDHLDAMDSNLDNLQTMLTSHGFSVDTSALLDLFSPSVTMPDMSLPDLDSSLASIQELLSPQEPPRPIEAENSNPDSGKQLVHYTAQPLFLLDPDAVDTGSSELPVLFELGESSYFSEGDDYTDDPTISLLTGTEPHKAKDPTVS
# [3] = target: Cytochrome P450 3A4 (Homo sapiens, UniProt P08684);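 also: CYP3A4 tested as one member of a cytochrome P450 panel screen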
# Sequence of Cytochrome P450 3A4 (P08684 whole entry): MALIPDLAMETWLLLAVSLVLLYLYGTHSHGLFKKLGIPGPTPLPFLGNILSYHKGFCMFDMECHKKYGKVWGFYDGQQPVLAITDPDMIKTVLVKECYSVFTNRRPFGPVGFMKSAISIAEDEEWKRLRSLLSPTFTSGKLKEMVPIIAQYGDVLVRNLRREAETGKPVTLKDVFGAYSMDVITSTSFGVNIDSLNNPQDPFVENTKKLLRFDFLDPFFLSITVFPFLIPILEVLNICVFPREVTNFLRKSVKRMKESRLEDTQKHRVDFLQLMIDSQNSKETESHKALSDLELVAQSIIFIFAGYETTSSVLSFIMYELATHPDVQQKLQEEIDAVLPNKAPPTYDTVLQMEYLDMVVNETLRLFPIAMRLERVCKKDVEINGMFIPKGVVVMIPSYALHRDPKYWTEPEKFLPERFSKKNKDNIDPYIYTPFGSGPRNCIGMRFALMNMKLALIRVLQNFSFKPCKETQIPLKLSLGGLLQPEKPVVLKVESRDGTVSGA
# [4] = Trypanosoma cruzi growth suppression in host cells – NIH3T3 host cells, beta-gal luminescence, confirmation (AID 2044); type: functional, cell-based;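 also: intracellular parasites grown in NIH/3T3 mouse fibroblasts as host cells; luminescent beta-galactosidase reporter signal from transgenic T. cruzi replicating inside host cells; inhibitors lower the luminescence signal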
# [5] = NIH3T3 cell viability loss – ATP luminescence, mouse fibroblasts, counter-screen, dose response (AID 2010); type: functional, cell-based;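 also: cells exposed to compound for about 90 hours before reading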
# [6] = target: Cytochrome P450 2D6 (Homo sapiens, UniProt P10635);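 also: CYP2D6 member of a cytochrome P450 panel assay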
# Sequence of Cytochrome P450 2D6 (P10635 whole entry): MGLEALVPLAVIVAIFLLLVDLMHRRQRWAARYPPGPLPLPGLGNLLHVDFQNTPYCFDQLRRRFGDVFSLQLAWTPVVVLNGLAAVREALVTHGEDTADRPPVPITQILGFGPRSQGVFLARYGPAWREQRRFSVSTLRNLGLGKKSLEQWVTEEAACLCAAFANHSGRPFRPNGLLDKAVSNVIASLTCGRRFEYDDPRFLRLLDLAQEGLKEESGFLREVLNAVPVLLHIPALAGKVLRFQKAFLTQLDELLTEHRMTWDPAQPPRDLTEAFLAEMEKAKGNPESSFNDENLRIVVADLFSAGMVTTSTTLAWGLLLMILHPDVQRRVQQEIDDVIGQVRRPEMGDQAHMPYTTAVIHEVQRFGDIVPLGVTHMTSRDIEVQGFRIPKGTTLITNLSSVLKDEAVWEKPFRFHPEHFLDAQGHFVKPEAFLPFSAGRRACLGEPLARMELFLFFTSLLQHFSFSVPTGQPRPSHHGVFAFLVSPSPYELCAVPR
# [7] = tested on: Streptococcus sp. 'group A'; assay: Streptococcus pyogenes SK(-)GAS viability under kanamycin – luminescence, BacTiterGlo, confirmation, counter-screen for streptokinase expression inhibitor project, dose response (AID 1900); type: functional, organism-based
# [8] = tested on: Streptococcus; assay: GAS UMAA2166 growth inhibition – luminescence, BacTiterGlo, counter-screen for streptokinase expression inhibitor project, dose response (AID 1915); type: functional, organism-based;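 also: potency for reduction of bacterial viability or growth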
# Sequence of Cytochrome P450 2C19 (P33261 whole entry): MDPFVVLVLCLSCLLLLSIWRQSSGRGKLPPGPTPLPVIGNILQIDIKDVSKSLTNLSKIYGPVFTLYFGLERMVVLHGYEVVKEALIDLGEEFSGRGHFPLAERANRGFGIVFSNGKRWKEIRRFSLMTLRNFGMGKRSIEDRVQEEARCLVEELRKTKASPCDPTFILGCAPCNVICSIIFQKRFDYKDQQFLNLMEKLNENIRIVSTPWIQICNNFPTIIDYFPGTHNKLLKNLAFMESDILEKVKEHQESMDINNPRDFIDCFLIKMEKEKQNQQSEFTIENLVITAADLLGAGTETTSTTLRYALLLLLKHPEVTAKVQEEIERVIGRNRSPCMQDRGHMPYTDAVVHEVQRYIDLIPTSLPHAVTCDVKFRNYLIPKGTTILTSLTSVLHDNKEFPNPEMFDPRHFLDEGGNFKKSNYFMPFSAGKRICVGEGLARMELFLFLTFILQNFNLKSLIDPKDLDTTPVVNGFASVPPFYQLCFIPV
smiles,measurement,setting,value
N[C@H](CCCC(=O)O)C(=O)O,AC50,[1],inconclusive
O=C(O)C1C2C=CC(O2)C1C(=O)Nc1ccc2c(c1)OCCO2 (configuration not stated),EC50,[2],25.9 µM (active)
O=C1CCC[C@@H](C(C(=O)OCc2ccccc2)C(=O)OCc2ccccc2)C1,AC50,[3],3.98 µM (inconclusive)
same,AC50,[1]; read-out: AC50,3.98 µM (inconclusive)
COc1cc(NC(=O)c2cc(-c3ccc4c(c3)OCO4)on2)cc(OC)c1OC,EC50,[4],0.115 µM (active)
same,EC50,[5],> 30 µM (not active)
Cn1c(=O)c2nc(CCS)[nH]c2n(C)c1=O,AC50,[3],10 µM (inconclusive)
Cc1ccc(OCC(=O)Nc2cnc(O)nc2O)cc1C,EC50,[2],> 195 µM (not active)
CC(C)Cn1c(N)c(C(=O)CSc2nc3ccccc3c(=O)n2CCCN2CCOCC2)c(=O)n(C)c1=O,EC50,[4],1.5 µM (active)
same,EC50,[5],> 60 µM (not active)
C=CC[C@@H]1C=C[C@H](O/N=C(\C)CCN2CCc3nc(CC)c(CC)cc3C2)[C@H](CO)O1,AC50,[6],3.98 µM (inconclusive)
CCOc1ccc(C(=O)COC(=O)Cc2nnc(O)c3ccccc23)cc1,EC50,[2],> 195 µM (not active)
OC(COc1ccc(F)cc1Cl)CN1CCC(Cc2ccccc2)CC1 (configuration not stated),EC50,[4],4.04 µM (active)
same,EC50,[5],> 30 µM (not active)
CN1CCN(c2nc(Nc3cccc(C(F)(F)F)c3)nc(N3CCOCC3)n2)CC1,EC50,[4],1.78 µM (active)
same,EC50,[5],10.3 µM (active)
O=C(O)CN1CCN(Cc2ccc(F)cc2Cl)C1=O,AC50,[6],20 µM (inconclusive)
Cc1ccc(-n2c(=O)cc(N3CCN(Cc4ccccc4)CC3)[nH]c2=O)cc1,EC50,[2],> 195 µM (not active)
CC(C)CCNC(=O)c1ccc2c(SCC(=O)O)c3c(nc2c1)CCC3,EC50,[2],> 195 µM (not active)
Cc1nn(-c2ccc([N+](=O)[O-])cc2)c2c1C(c1ccc(OC(F)F)cc1)N1C(=N2)C(=O)Nc2ccccc21 (configuration not stated),EC50,[4],1.31 µM (active)
same,EC50,[5],> 60 µM (not active)
COC(=O)CSc1ccc2nnc(-c3ccc(F)cc3)n2n1,AC50,[1]; read-out: AC50,28.2 µM (inconclusive)
CCNc1ncc2nc(-c3cccs3)c(=O)n(CCc3ccccc3)c2n1,AC50,[3],15.8 µM (inconclusive)
same,AC50,[6],20 µM (inconclusive)
CCCn1c(-c2cccs2)nc2nc3ccccc3nc21,AC50,[6],28.2 µM (inconclusive)
CCOC(=O)c1cc2c(C(F)(F)F)cc(-c3ccccc3)nc2o1,AC50,[1]; read-out: AC50,25.1 µM (inconclusive)
Cc1nc2cnc(Nc3ccccc3)nc2n(C[C@H]2CCCO2)c1=O,AC50,[3],15.8 µM (inconclusive)
Clc1ccc(CNCCCSc2ncccn2)cc1Cl,EC50,[4],1.19 µM (active)
same,EC50,[5],> 60 µM (not active)
Nc1cc(N)nc(SCC(=O)c2ccccc2)n1,AC50,[3],35.5 µM (inconclusive)
same,AC50,[1]; read-out: AC50,7.08 µM (inconclusive)
Cc1cc(Nc2ccc3c(c2)OCCO3)c2cc(Cl)ccc2n1,EC50,[2],17.2 µM (active)
CC1(C)OC(=O)N(Cc2ccco2)C1(C)O (configuration not stated),AC50,[1]; read-out: AC50,14.1 µM (inconclusive)
CCN(CC)S(=O)(=O)c1ccc(C(=O)Nc2ncn(Cc3ccccc3)n2)cc1,AC50,[1]; read-out: AC50,25.1 µM (inconclusive)
Cc1c(C2=CCN(S(=O)(=O)c3ccc(Br)cc3)CC2)c2ccccc2n1C,EC50,[2],> 195 µM (not active)
Cc1noc(C)c1-c1nccc(NCCN2CCOCC2)n1,AC50,[3],20 µM (inconclusive)
same,AC50,[6],20 µM (inconclusive)
Cc1ccc(S(=O)(=O)NCCSc2nnnn2C)cc1,AC50,[3],14.1 µM (inconclusive)
Cc1nc(C)c(-c2nnc(-c3cccc(S(=O)(=O)N(C)C)c3)o2)cc1C(=O)NN,EC50,[2],> 195 µM (not active)
CCOC(=O)c1nc(Nc2cc(C)cc(C)c2)c2ccccc2n1,EC50,[4],2.85 µM (active)
same,EC50,[5],> 30 µM (not active)
O=C(NCCc1csc(-c2ccccc2)n1)c1ccccc1F,EC50,[4],0.531 µM (active)
same,EC50,[5],> 60 µM (not active)
NS(=O)(=O)c1ccc(Nc2nc(-c3cccc([N+](=O)[O-])c3)cs2)cc1,EC50,[4],4.08 µM (active)
same,EC50,[5],> 60 µM (not active)
CC12CCC3C(CC=C4CC5(CCC43C)OCCO5)C1CCC2=O (configuration not stated),EC50,[2],> 195 µM (not active)
COCCn1c(=O)c(-c2cccs2)nc2cnc(OCc3ccccc3)nc21,AC50,[3],3.16 µM (inconclusive)
COc1ccccc1-c1cncnc1N(C)Cc1ccco1,AC50,[6],25.1 µM (inconclusive)
C/C=C(\C)CN1CCC(n2nccc2NC(=O)c2ccc(OC)cc2)CC1,EC50,[4],0.703 µM (active)
same,EC50,[5],> 60 µM (not active)
COc1ccccc1CN1CCCC(CN(CCN(C)C)C(=O)C2CCCC2)C1 (configuration not stated),EC50,[2],> 195 µM (not active)
O=S(=O)(Nc1cccc(Oc2cnccn2)c1)c1ccc(F)cc1,EC50,[2],> 195 µM (not active)
COc1cccc(-c2cc(NCc3cnc(C)cn3)ncn2)c1,AC50,[1]; read-out: AC50,0.398 µM (inconclusive)
Cc1ccc([C@@]2(C)CC/C(=N/N=C3\CC[C@](C)(c4ccc(C)c(C)c4)c4cc(C)c(C)cc43)c3cc(C)c(C)cc32)cc1C,AC50,[1],inconclusive
CN1CCN(c2ncnc3ccc(-c4ccc(C(=O)N(C)C)cc4)cc23)CC1,AC50,[3],25.1 µM (inconclusive)
CCOCCn1c(SCC(=O)OCc2ccccc2)nc2c1c(=O)[nH]c(=O)n2C,EC50,[2],> 195 µM (not active)
CC(C)(C)C1CCC2(CC1)CCN(CCCN1CCOCC1)CC2,AC50,[6],3.98 µM (inconclusive)
Cc1ccc(-n2c(C)cc(/C=C(\C#N)C(=O)NCC3CCCO3)c2C)cc1 (configuration not stated),AC50,[3],31.6 µM (inconclusive)
same,AC50,[6],14.1 µM (inconclusive)
O=C(NCc1ccccc1)c1onc(CSc2ccccc2)c1C(=O)NCC1CC1,EC50,[4],4.28 µM (active)
same,EC50,[5],> 60 µM (not active)
CCOc1cccc(CN2CCCC(CCC(=O)NCc3ccccc3F)C2)c1O (configuration not stated),EC50,[4],0.222 µM (active)
same,EC50,[5],> 60 µM (not active)
CCOc1ccc(CN(C)CC(=O)Nc2cc(OC)c([N+](=O)[O-])cc2C)cc1,EC50,[4],0.404 µM (active)
same,EC50,[5],> 30 µM (not active)
O=C(CN1CCN(Cc2ccccc2)CC1)c1ccc(Br)cc1,AC50,[3],14.1 µM (inconclusive)
same,AC50,[1]; read-out: AC50,14.1 µM (inconclusive)
Cc1cc(/C=C2\SC(=O)NC2=O)c(C)n1-c1ccc(N2CCOCC2)cc1,EC50,[7],1.32 µM (active)
same,EC50,[8],4.72 µM (active)
NS(=O)(=O)c1ccc(/N=N\c2cc3ccccc3c(C(=O)O)c2O)cc1,AC50,[3],3.16 µM (inconclusive)
COC(=O)N1CCC2(CCN(Cc3ccc(C#N)cc3)CC2)CC1,AC50,[1]; read-out: AC50,0.1 µM (inconclusive)
CC(NC(=O)CN1C(=O)NC(Cc2ccccc2)(Cc2ccccc2)C1=O)C12CC3CC(CC(C3)C1)C2 (configuration not stated),EC50,[4],2.81 µM (active)
same,EC50,[5],> 30 µM (not active)
O=C(NCCN1CCN(C(=O)c2cc3ccccc3oc2=O)CC1)c1cc2ccccc2oc1=O,AC50,[3],14.1 µM (inconclusive)
same,AC50,[1]; read-out: AC50,3.98 µM (inconclusive)
Brc1ccccc1OCCCCCN1CCCC1,EC50,[4],2.22 µM (active)
same,EC50,[5],> 30 µM (not active)
Cc1c(C=O)c2ccccn2c1C(=O)c1ccncc1,AC50,[3],10 µM (inconclusive)
same,AC50,[6],25.1 µM (inconclusive)
CCOC(=O)N1CCN(CC(O)COC2CC(C)CC(C)(C)C2)CC1 (configuration not stated),EC50,[2],> 195 µM (not active)
COc1ccc(COC(=O)N/N=C2/C[C@@H](O)[C@@H](O)[C@@H]3[C@@H]4C(=O)N(c5cccc(Oc6ccccc6)c5)C(=O)[C@H]4CC[C@@H]23)cc1,AC50,[6],3.16 µM (inconclusive)
Cc1nnc(Sc2cc(C(=O)NCCCN(C)Cc3ccccc3)c3ccccc3n2)s1,EC50,[4],0.521 µM (active)
same,EC50,[5],> 60 µM (not active)
O=C(c1ccc(CN2CCc3ccccc3C2)cc1)N1CCc2ccccc2C1,AC50,[3],3.98 µM (inconclusive)
CN(C)c1ccc(-c2noc(C3CCN(C(=O)Nc4ccc(Cl)cc4)CC3)n2)cc1,EC50,[2],> 195 µM (not active)
CCCCN1C(=O)NC(=O)/C(=C(/CC)NCc2ccc(F)cc2)C1=O,AC50,[3],28.2 µM (inconclusive)
c1cncc(-c2nc(N3CCNCC3)c3ccccc3n2)c1,AC50,[3],31.6 µM (inconclusive)
COc1ncc2ncc(=O)n(Cc3cccs3)c2n1,AC50,[3],1.26 µM (inconclusive)
CN(C)CCCN(C(=O)c1ccc(S(=O)(=O)N2CCc3ccccc32)cc1)c1nc2c(Cl)cccc2s1,EC50,[4],0.206 µM (active)
same,EC50,[5],20.2 µM (active)
O=C(c1ccccc1)N1CCN(CC2CC=CCC2)CC1 (configuration not stated),EC50,[2],> 195 µM (not active)
CC(=O)NC1(C(F)(F)F)C(=O)N(Cc2ccccc2)C2=C1C(=O)CC(C)(C)C2 (configuration not stated),AC50,[3],14.1 µM (inconclusive)
same,AC50,[1]; read-out: AC50,15.8 µM (inconclusive)
CC(O)(CS(=O)(=O)c1cccc(C(F)(F)F)c1)C(=O)Nc1ccc(C(F)(F)F)cc1 (configuration not stated),AC50,[6],0.0224 µM (inconclusive)
COc1cc(N)c(Cl)cc1C(=O)N[C@@H]1CN2CCC1CC2,AC50,[6],39.8 µM (inconclusive)
N#Cc1cccc(-c2cncnc2NCc2ccccc2)c1,AC50,[6],20 µM (inconclusive)
CC(C)N(CCC(=O)c1ccc2ccccc2c1)Cc1ccccc1,AC50,[3],39.8 µM (inconclusive)
